Measurements as given in patent US8785630B2, “Insecticidal triazines and pyrimidines” (Vestaron Corporation, priority 2011, dated 2014).

tested on: beet armyworm (Spodoptera exigua); experiment: Insecticidal test for beet armyworm, treated diet surface; format: in vivo; details: 100 μg/cm^2 on diet surface, first instar larvae, 32 insects per treatment, observations 24, 48 and 96 hours
Protocol: The compounds identified in Table 8 were prepared according to the previous methods and were tested against beet armyworm and corn earworm as follows:
Insecticidal Test for Beet Armyworm (Spodoptera exigua).
To prepare the test solution, the test compound was Formulated at 3499 ppm in solution as 5 mg compound/1.429 mL of 9 parts acetone: 1 part deionized H2O and vortexed to homogenize. 50 μL of the 3499 ppm (equivalent to 100 μg/cm^2 dose on diet surface area) test solution was pipetted upon the surface of 1 mL of solidified cool Southland Products Incorporated Beet Armyworm Diet (201 Stuart Island Road Lake Village, Ark. 71653) using an Eppendorf Repeater Plus with a 1 mL pipette tip. All pipetting of treatments was done in a Labconco Hood. Thirty minutes were allowed for the acetone to evaporate leaving a dose of 100 μg/cm^2 on the surface of the artificial diet. Two 24 hour old first instar Beet Armyworm (Spodoptera Exigua) larvae were placed in each well of the 128 well Bio-BA 128 Bioassay trays (CD International, Pitman, N.J., 08071, USA) using a #0 fine camel hair paint brush. Bioassay trays were sectioned into treatment groups of 8 with 16 replicates per treatment group (32 insects per treatment). Trays containing the treated diet and larvae were covered with a Bio-CV-16 cover (CD International, Pitman, N.J., 08071, USA) and then placed on a rack under florescent lights at 27° C., 20% relative humidity (RH) in the room, and 16 hr light: 8 hr dark for 96 hours. Observations were made 24, 48 and 96 hours after treatment and infestation. The number of insects dead were counted out of the 32 insects total per treatment and the results are given in a table as a percent mortality at a dose of 100 μg/cm^2. When finished, the tray was moved to the −5° C. freezer and left for 24 hr to insure mortality of the remaining S. exigua. After 24 hours, dispose of entire tray into waste bin.
Keys to the table: Mortality refers to activity against beet army worm (Spodoptera exigua) as defined above at the concentration of 100 μg/cm^2 (A=76-100% mortality, B=51-75% mortality, C=26-50% mortality and D=0-25% mortality).

First: Fc1cccc(Cl)c1-c1nc(NCCN2CCOCC2)nc(NN=Cc2ccc(OC(F)(F)F)cc2)n1 [Example 24, 4-(2-chloro-6-fluorophenyl)-N-(2-morpholinoethyl)-6-(2-(4-(trifluoromethoxy)benzylidene)hydrazinyl)-1,3,5-triazin-2-amine]
Second: NCCNc1nc(NN=Cc2ccc(OC(F)(F)F)cc2)nc(-c2c(F)cccc2Cl)n1 [Example 28, N1-(4-(2-chloro-6-fluorophenyl)-6-(2-(4-(trifluoromethoxy)benzylidene)hydrazinyl)-1,3,5-triazin-2-yl)ethane-1,2-diamine]
The mortality at 100 µg/cm2 of the first is higher: 76 to 100% for the first, 0 to 25% for the second.

CN(C)Nc1nc(NN=Cc2ccc(OC(F)(F)F)cc2)nc(-c2c(F)cccc2Cl)n1 [Example 25, 2-(2-chloro-6-fluorophenyl)-4-(2,2-dimethylhydrazinyl)-6-(2-(4-(trifluoromethoxy)benzylidene)hydrazinyl)-1,3,5-triazine] and CNc1nc(NN=Cc2ccc(OC(F)(F)F)cc2)nc(-c2c(F)cccc2Cl)n1 [Example 43, 4-(2-chloro-6-fluorophenyl)-N-methyl-6-(2-(4-(trifluoromethoxy)benzylidene)hydrazinyl)-1,3,5-triazin-2-amine] fall in the same range of mortality at 100 µg/cm2: 76 to 100% for the first, 76 to 100% for the second.

First: Fc1cccc(Cl)c1-c1nc(NCC2CCOC2)nc(NN=Cc2ccc(OC(F)(F)F)cc2)n1 (stereo not shown) [Example 26, 4-(2-chloro-6-fluorophenyl)-N-((tetrahydrofuran-3-yl)methyl)-6-(2-(4-(trifluoromethoxy)benzylidene)hydrazinyl)-1,3,5-triazin-2-amine]
Second: Fc1cccc(Cl)c1-c1nc(NN=Cc2ccc(OC(F)(F)F)cc2)nc(Nc2ccnc(Cl)c2)n1 [Example 40, 4-(2-chloro-6-fluorophenyl)-N-(2-chloropyridin-4-yl)-6-(2-(4-(trifluoromethoxy)benzylidene)hydrazinyl)-1,3,5-triazin-2-amine]
The mortality at 100 µg/cm2 of the first is lower: 0 to 25% for the first, 26 to 50% for the second.

FC(F)(F)Oc1ccc(C=NNc2nc(Nc3ccc(Cl)cc3)nc(-c3c(Cl)cc(Cl)cc3Cl)n2)cc1 [Example 27, N-(4-chlorophenyl)-4-(2,4,6-trichlorophenyl)-6-(2-(4-(trifluoromethoxy)benzylidene)hydrazinyl)-1,3,5-triazin-2-amine] and FC(F)(F)Oc1ccc(C=NNc2nc(Nc3ccc(Cl)cc3)nc(-c3ccc(Cl)c(Cl)c3)n2)cc1 [Example 32, N-(4-chlorophenyl)-4-(3,4-dichlorophenyl)-6-(2-(4-(trifluoromethoxy)benzylidene)hydrazinyl)-1,3,5-triazin-2-amine] fall in the same range of mortality at 100 µg/cm2: 0 to 25% for the first, 0 to 25% for the second.

First: COc1cccc(-c2nc(NN=Cc3ccc(OC(F)(F)F)cc3)nc(Nc3ccc(Cl)cc3)n2)c1 [Example 29, N-(4-chlorophenyl)-4-(3-methoxyphenyl)-6-(2-(4-(trifluoromethoxy)benzylidene)hydrazinyl)-1,3,5-triazin-2-amine]
Second: Fc1cccc(-c2nc(NN=Cc3ccc(OC(F)(F)F)cc3)nc(Nc3ccc(Cl)cc3)n2)c1 [Example 31, N-(4-chlorophenyl)-4-(3-fluorophenyl)-6-(2-(4-(trifluoromethoxy)benzylidene)hydrazinyl)-1,3,5-triazin-2-amine]
The mortality at 100 µg/cm2 of the first is lower: 0 to 25% for the first, 51 to 75% for the second.

COc1ccc(-c2nc(NN=Cc3ccc(OC(F)(F)F)cc3)nc(Nc3ccc(Cl)cc3)n2)cc1 [Example 30, N-(4-chlorophenyl)-4-(4-methoxyphenyl)-6-(2-(4-(trifluoromethoxy)benzylidene)hydrazinyl)-1,3,5-triazin-2-amine] and Cc1ccc(-c2nc(NN=Cc3ccc(OC(F)(F)F)cc3)nc(Nc3ccc(Cl)cc3)n2)cc1 [Example 33, N-(4-chlorophenyl)-4-(p-tolyl)-6-(2-(4-(trifluoromethoxy)benzylidene)hydrazinyl)-1,3,5-triazin-2-amine] fall in the same range of mortality at 100 µg/cm2: 0 to 25% for the first, 0 to 25% for the second.

Fc1ccc(Nc2nc(NN=Cc3ccc(OC(F)(F)F)cc3)nc(-c3c(F)cccc3Cl)n2)cc1Cl [Example 34, N-(3-chloro-4-fluorophenyl)-4-(2-chloro-6-fluorophenyl)-6-(2-(4-(trifluoromethoxy)benzylidene)hydrazinyl)-1,3,5-triazin-2-amine] and Fc1cccc(Cl)c1-c1nc(NN=Cc2ccc(OC(F)(F)F)cc2)nc(Nc2ccc(Cl)c(Cl)c2)n1 [Example 38, 4-(2-chloro-6-fluorophenyl)-N-(3,4-dichlorophenyl)-6-(2-(4-(trifluoromethoxy)benzylidene)hydrazinyl)-1,3,5-triazin-2-amine] fall in the same range of mortality at 100 µg/cm2: 76 to 100% for the first, 76 to 100% for the second.

Fc1ccc(Nc2nc(NN=Cc3ccc(OC(F)(F)F)cc3)nc(-c3c(F)cccc3Cl)n2)cc1C(F)(F)F [Example 35, 4-(2-chloro-6-fluorophenyl)-N-(4-fluoro-3-(trifluoromethyl)phenyl)-6-(2-(4-(trifluoromethoxy)benzylidene)hydrazinyl)-1,3,5-triazin-2-amine] and Fc1cccc(Cl)c1-c1nc(NN=Cc2ccc(OC(F)(F)F)cc2)nc(Nc2cc(Cl)cc(Cl)c2)n1 [Example 39, 4-(2-chloro-6-fluorophenyl)-N-(3,5-dichlorophenyl)-6-(2-(4-(trifluoromethoxy)benzylidene)hydrazinyl)-1,3,5-triazin-2-amine] fall in the same range of mortality at 100 µg/cm2: 76 to 100% for the first, 76 to 100% for the second.

Fc1cccc(Cl)c1-c1nc(NN=Cc2ccc(OC(F)(F)C(F)Cl)cc2)nc(Nc2ccc(Cl)nc2)n1 (stereo not shown) [Example 36, 4-(2-(4-(2-chloro-1,1,2-trifluoroethoxy)benzylidene)hydrazinyl)-6-(2-chloro-6-fluorophenyl)-N-(6-chloropyridin-3-yl)-1,3,5-triazin-2-amine] and Fc1cccc(Cl)c1-c1nc(NN=Cc2ccc(OC(F)(F)C(F)Cl)cc2)nc(Nc2ccc(Cl)cc2)n1 (stereo not shown) [Example 37, 4-(2-(4-(2-chloro-1,1,2-trifluoroethoxy)benzylidene)hydrazinyl)-6-(2-chloro-6-fluorophenyl)-N-(4-chlorophenyl)-1,3,5-triazin-2-amine] fall in the same range of mortality at 100 µg/cm2: 76 to 100% for the first, 76 to 100% for the second.

First: Fc1cccc(Cl)c1-c1nc(NN=Cc2ccc(OC(F)(F)F)cc2)nc(Nc2ccccc2Cl)n1 [Example 41, 4-(2-chloro-6-fluorophenyl)-N-(2-chlorophenyl)-6-(2-(4-(trifluoromethoxy)benzylidene)hydrazinyl)-1,3,5-triazin-2-amine]
Second: Fc1cccc(Cl)c1-c1nc(NN=Cc2ccc(OC(F)(F)F)cc2)nc(Nc2ccc(Cl)cn2)n1 [Example 45, 4-(2-chloro-6-fluorophenyl)-N-(5-chloropyridin-2-yl)-6-(2-(4-(trifluoromethoxy)benzylidene)hydrazinyl)-1,3,5-triazin-2-amine]
The mortality at 100 µg/cm2 of the first is higher: 76 to 100% for the first, 26 to 50% for the second.

Fc1ccccc1-c1nc(NN=Cc2ccc(OC(F)(F)F)cc2)nc(Nc2ccc(Cl)nc2)n1 [Example 42, N-(6-chloropyridin-3-yl)-4-(2-fluorophenyl)-6-(2-(4-(trifluoromethoxy)benzylidene)hydrazinyl)-1,3,5-triazin-2-amine] and Fc1ccccc1-c1nc(NN=Cc2ccc(OC(F)(F)F)cc2)nc(Nc2ccc(Cl)cc2)n1 [Example 44, N-(4-chlorophenyl)-4-(2-fluorophenyl)-6-(2-(4-(trifluoromethoxy)benzylidene)hydrazinyl)-1,3,5-triazin-2-amine] fall in the same range of mortality at 100 µg/cm2: 76 to 100% for the first, 76 to 100% for the second.

First: FC(F)(F)Oc1ccc(C=NNc2cc(Nc3ccc(Cl)cc3)nc(-c3ccccc3)n2)cc1 [Example 46, N-(4-chlorophenyl)-2-phenyl-6-(2-(4-(trifluoromethoxy)benzylidene)hydrazinyl)pyrimidin-4-amine]
Second: FC(F)(F)Oc1ccc(C=NNc2nc(Nc3ccc(Cl)nc3)cc(-c3ccccc3)n2)cc1 [Example 47, N-(6-chloropyridin-3-yl)-6-phenyl-2-(2-(4-(trifluoromethoxy)benzylidene)hydrazinyl)pyrimidin-4-amine]
The mortality at 100 µg/cm2 of the first is higher: 76 to 100% for the first, 0 to 25% for the second.

Fc1cccc(Cl)c1C=NNc1nc(Nc2ccc(Cl)cc2)nc(-c2ccc(OC(F)(F)F)cc2)n1 [Example 48, 4-(2-(2-chloro-6-fluorobenzylidene)hydrazinyl)-N-(4-chlorophenyl)-6-(4-(trifluoromethoxy)phenyl)-1,3,5-triazin-2-amine] and Fc1cccc(Cl)c1-c1nc(NN=Cc2ccc(C(F)(F)F)cc2)nc(Nc2ccc(Cl)nc2)n1 [Example 51, 4-(2-chloro-6-fluorophenyl)-N-(6-chloropyridin-3-yl)-6-(2-(4-(trifluoromethyl)benzylidene)hydrazinyl)-1,3,5-triazin-2-amine] fall in the same range of mortality at 100 µg/cm2: 76 to 100% for the first, 76 to 100% for the second.

FC(F)(F)Oc1ccc(C=NNc2nc(Nc3ccc(Cl)cn3)cc(-c3ccccc3)n2)cc1 [Example 49, N-(5-chloropyridin-2-yl)-6-phenyl-2-(2-(4-(trifluoromethoxy)benzylidene)hydrazinyl)pyrimidin-4-amine] and Oc1ccc(C=NNc2nc(Nc3ccc(Cl)nc3)nc(-c3c(F)cccc3Cl)n2)cc1 [Example 50] fall in the same range of mortality at 100 µg/cm2: 0 to 25% for the first, 0 to 25% for the second.
